ChEMBL document CHEMBL3085665, “Gallic acid is the major component of grape seed extract that inhibits amyloid fibril formation” (Bioorg Med Chem Lett, 2013)
pIC50: −log10 of the molar value. Active and inactive are the calls of the source. The calls are words filed in the database; no cut-off is given here.

Key:
Homo sapiens [1] = organism: Homo sapiens; assay: Inhibition of reduced carboxymethylated-kappa-casein (unknown origin) conversion to amyloid fibrils at 1:2 protein to compound molar ratio after 1000 mins by thioflavin T fluorescence assay relative to control
Homo sapiens [2] = organism: Homo sapiens; assay: Inhibition of reduced carboxymethylated-kappa-casein (unknown origin) conversion to amyloid fibrils at 0.1:1 to 2:1 compound to protein molar ratio after 1000 mins by thioflavin T fluorescence assay
Homo sapiens [3] = organism: Homo sapiens; assay: Inhibition of reduced carboxymethylated-kappa-casein (unknown origin) conversion to amyloid fibrils at 1:1 protein to compound molar ratio after 1000 mins by thioflavin T fluorescence assay relative to control
[4] = target: Amyloid-beta precursor protein (Homo sapiens) (UniProt P05067); assay: Inhibition of amyloid beta (1 to 40) (unknown origin) aggregation at 1:0.1 to 1:2 protein to compound molar ratio up to 10 hrs by thioflavin T fluorescence assay
Sequence of Amyloid-beta precursor protein (Homo sapiens) (P05067 whole entry): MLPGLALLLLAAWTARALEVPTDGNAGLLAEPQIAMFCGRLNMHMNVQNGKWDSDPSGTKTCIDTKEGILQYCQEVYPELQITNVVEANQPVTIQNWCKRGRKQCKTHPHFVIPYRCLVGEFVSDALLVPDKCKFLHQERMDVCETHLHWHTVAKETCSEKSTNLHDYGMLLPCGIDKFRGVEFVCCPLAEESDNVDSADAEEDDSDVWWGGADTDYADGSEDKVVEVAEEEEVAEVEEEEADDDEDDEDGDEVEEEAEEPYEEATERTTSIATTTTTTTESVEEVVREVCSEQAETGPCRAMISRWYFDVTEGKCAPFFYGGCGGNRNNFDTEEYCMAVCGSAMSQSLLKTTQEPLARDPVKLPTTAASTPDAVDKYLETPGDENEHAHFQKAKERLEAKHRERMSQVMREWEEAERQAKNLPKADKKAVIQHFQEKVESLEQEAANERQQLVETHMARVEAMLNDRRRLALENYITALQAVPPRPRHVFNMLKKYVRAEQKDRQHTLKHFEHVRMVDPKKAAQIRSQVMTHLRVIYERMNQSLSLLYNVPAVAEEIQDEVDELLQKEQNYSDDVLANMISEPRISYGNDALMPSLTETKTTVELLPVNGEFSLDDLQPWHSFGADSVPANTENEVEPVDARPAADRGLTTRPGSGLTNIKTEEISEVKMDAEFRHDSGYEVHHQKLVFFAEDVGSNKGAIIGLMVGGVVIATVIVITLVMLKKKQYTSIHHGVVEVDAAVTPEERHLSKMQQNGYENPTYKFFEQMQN

Homo sapiens [5] = organism: Homo sapiens; assay: Inhibition of reduced carboxymethylated-kappa-casein (unknown origin) conversion to amyloid fibrils at 1:0.1 protein to compound molar ratio after 1000 mins by thioflavin T fluorescence assay relative to control
[6] = target: Amyloid-beta precursor protein (Homo sapiens) (UniProt P05067); assay: Inhibition of amyloid beta (1 to 40) (unknown origin) aggregation at 1:0.1 to 1:2 protein to compound molar ratio after 20 hrs by transmission electron microscopic analysis
[7] = Effect on RCM-kappa-casein-induced cytotoxicity against rat PC12 cells assessed as increase in cell viability at 1:2 protein to compound molar ratio after 48 hrs by MTT assay relative to control; format: functional, PC-12
[8] = Cytotoxicity against rat PC12 cells assessed as cell viability at 5 uM after 48 hrs by MTT assay; format: cell-based; conditions: pc-12, 48 h
PC-12 = assay: Effect on RCM-kappa-casein-induced cytotoxicity against rat PC12 cells at 1:0.1 to 1:0.5 protein to compound molar ratio after 48 hrs by MTT assay; format: functional, cell-based
[9] = Reduction in RCM-kappa-casein-induced cytotoxicity against rat PC12 cells after 48 hrs by MTT assay; format: functional, cell-based; conditions: PC-12
Homo sapiens [10] = organism: Homo sapiens; assay: Binding affinity to reduced carboxymethylated-kappa-casein (unknown origin) at 1:2 protein to compound molar ratio after 20 hrs by far-UV-CD spectroscopic analysis
[11] = (§1) Inhibition of reduced carboxymethylated-kappa-casein (unknown origin) conversion to amyloid fibrils after 1000 mins by thioflavin T fluorescence assay; set-up: species or system Homo sapiens
Homo sapiens [12] = organism: Homo sapiens; assay: as §1
Homo sapiens [13] = organism: Homo sapiens; assay: Inhibition of reduced carboxymethylated-kappa-casein (unknown origin) conversion to amyloid fibrils at 1:0.5 protein to compound molar ratio after 1000 mins by thioflavin T fluorescence assay relative to control
Homo sapiens [14] = organism: Homo sapiens; assay: Inhibition of reduced carboxymethylated-kappa-casein (unknown origin) conversion to amyloid fibrils assessed as decrease in number of long, unbranched and mature amyloid fibrils at 1:2 protein to compound molar ratio after 1000 mins by transmission electron microscopic analysis

C[C@@H]1O[C@@H](OC[C@H]2O[C@@H](Oc3cc4c(O)cc(O)cc4[o+]c3-c3ccc(O)c(O)c3)[C@H](O)[C@@H](O)[C@@H]2O)[C@H](O)[C@H](O)[C@H]1O
inhibition (Homo sapiens [1]): 54%

Oc1cc(O)c2c(c1)OC(c1ccc(O)c(O)c1)C(O)C2 (configuration not stated)
inhibition (Homo sapiens [2]): inactive

Oc1cc(O)c2c(c1)O[C@H](c1ccc(O)c(O)c1)[C@H](O)C2
inhibition (Homo sapiens [2]): inactive

O=C(O)c1cc(O)c(O)c(O)c1 [GALLIC ACID]
inhibition (Homo sapiens [3]): 87% | inhibition (Homo sapiens [1]): 98% | inhibition [4]: Active | inhibition (Homo sapiens [5]): 3% | inhibition [6]: Active | Activity [7]: 88% | Activity [8]: Non-toxic | Activity (PC-12): inactive | Activity [9]: Dose-dependent effect | Activity (Homo sapiens [10]): Active | pIC50 [11]: 5.11 | inhibition (Homo sapiens [12]): Dose-dependent effect | inhibition (Homo sapiens [13]): 54% | inhibition (Homo sapiens [14]): Active
